ChEMBL document CHEMBL4602647, “Protective effects of 10,11-dihydro-5H-dibenzo[b,f]azepine hydroxamates on vascular cognitive impairment” (Eur J Med Chem, 2020)
Activity calls are given as the source filed them. The calls are words filed in the database; no cut-off is given here.

Assays:
[1] = Clearance in Sprague-Dawley rat at 2 mg/kg, iv measured up to 24 hrs; type: ADME, organism-based; conditions: in vivo
Histone deacetylase 1 = Histone deacetylase 1 (Homo sapiens, UniProt Q13547); experiment: Inhibition of recombinant full length human C-terminal FLAG/His-tagged HDAC1 (1 to 482 residues) expressed in baculovirus infected Sf21 cells using RHK-K(Ac)-AMC as substrate measured after 60 mins by fluorimetric assay; conditions: read-out: IC50
[2] = AUC (0 to infinity) in Sprague-Dawley rat at 10 mg/kg, po measured up to 24 hrs; type: ADME, organism-based; set-up: dose 10 mg/kg, time infinity, route oral; conditions: in vivo
Mus musculus = experiment: Anti-vascular cognitive impairment activity against bilateral common carotid artery occlusion-induced vascular dementia C57BL/6J mouse model assessed as improvement in short-term non-spatial working memory by measuring increase in novel object recognition at 25 mg/kg, ip administered post surgery measured after 1 to 3 months by novel object recognition test; type: functional, organism-based

Histone deacetylase 1, sequence (Q13547 whole entry, the tested form may be a part): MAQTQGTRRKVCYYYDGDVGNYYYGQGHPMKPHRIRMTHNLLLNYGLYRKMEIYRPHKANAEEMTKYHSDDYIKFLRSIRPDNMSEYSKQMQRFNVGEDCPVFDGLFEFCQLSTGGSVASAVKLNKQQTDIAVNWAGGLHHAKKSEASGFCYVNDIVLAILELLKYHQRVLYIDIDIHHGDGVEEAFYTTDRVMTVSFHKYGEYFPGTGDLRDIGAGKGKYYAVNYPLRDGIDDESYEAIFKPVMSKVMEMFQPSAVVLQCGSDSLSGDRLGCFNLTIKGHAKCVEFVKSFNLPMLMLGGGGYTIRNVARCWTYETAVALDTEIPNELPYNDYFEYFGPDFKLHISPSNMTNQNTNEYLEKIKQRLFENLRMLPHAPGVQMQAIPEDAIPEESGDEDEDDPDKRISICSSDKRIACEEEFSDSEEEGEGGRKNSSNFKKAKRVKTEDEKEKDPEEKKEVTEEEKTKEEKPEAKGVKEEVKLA

SMILES: O=C(/C=C/c1ccc(CNCCCN2c3ccccc3CCc3ccc(Cl)cc32)cc1)NO
- clearance [1]: 21.3 mL/min/kg
- IC50 (Histone deacetylase 1): 3.82 µM
- AUC(0-inf) [2]: 166 ng·h/mL
- Activity (Mus musculus): Active
